“Also recorded” adds a separate entry of the source. Counter-ions that a name gives are not always drawn.
How the values were obtained:
Abca4−/−Rdh8−/− mice [1] = test: Bright light-induced retinal degeneration in Abca4−/−Rdh8−/− mice, SLO autofluorescence imaging; format: in vivo, mouse; conditions: pretreatment before light 10,000 lux 30 min; SLO 8-9 days after light exposure
Procedure: SLO (Heidelberg Engineering, Heidelberg, Germany) was carried out for whole fundus imaging of mouse retinas. Mice were anesthetized by intraperitoneal injection of anesthetic cocktail indicated above, which was followed by pupil dilation using 1% tropicamide prior to SLO imaging under autofluorescence mode.
SLO (Heidelberg Engineering) was carried out for in vivo whole fundus imaging of mouse retinas. […] Numbers of autofluorescent spots were counted and subjected to statistical analyses as described below.
SLO (Heidelberg Engineering) was carried out for whole fundus imaging of mouse retinas in vivo. Mice were anesthetized, and their pupils were dilated as described above. SLO images were then acquired in the autofluorescence mode.

BALB/c mice = test: Light-induced retinal degeneration in BALB/c mice, retinal morphology (OCT, histology, IHC); format: in vivo, mouse; conditions: for retinal morphology / ONL (OCT, histology): ip pretreatment 30 min before 10,000 lux, 7 days after light
[2] = tested on: retinal transcriptome of Abca4−/−Rdh8−/− mice; test: RNA-seq retinal transcriptome of pretreated, light-exposed Abca4−/−Rdh8−/− mice (differential expression, Pearson, GSEA); format: in vivo, mouse; conditions: for NES, CHEMOKINE SIGNALING gene set / NES, CYTOKINE- RECEPTOR INTERACTIO gene set / NES, P53 gene set / NES, TOLL-LIKE SIGNALING gene set / NES, APOPTOSIS gene set: GSEA, vehicle-treated light-exposed retinas against drug-treated; for NES, APOPTOSIS gene set: P in brackets not reported here; for number of light-up-regulated gene sets significantly down-regulated (GSEA): of 44 gene sets up-regulated by light, mono doses BRM 1, MTP 10, TAM 2.5, DOX 10 mg/kg bw
Abca4−/−Rdh8−/− mice [3] = test: Bright light-induced retinal degeneration in Abca4−/−Rdh8−/− mice, retinal histology and immunohistochemistry; format: in vivo, mouse; conditions: pretreatment before light 10,000 lux 30 min; 7-10 days after light exposure
Procedure: Retinal histology and immunohistochemistry (IHC) was performed as previously described. Briefly, eye cups free of cornea, lens and vitreous body were fixed in 2% glutaraldehyde/4% paraformaldehyde and processed for Epon embedding. Sections 1 am thick were cut and stained with toluidine blue for histological examination under a light microscope. IHC analysis was performed on 12 am thick cryosections prepared from 4% paraformaldehyde-fixed eye cups. Collected cryosections were subjected to examination for rhodopsin, PNA and DAPI expression.
Retinal immunohistochemistry (IHC) was carried out as previously described. Briefly, eyes were enucleated and eye cups were made to eliminate cornea, lens and vitreous body and fixed in 4% paraformaldehyde and processed for cryosectioning. 12 am thick cryosections were collected cryosections and subjected to examination for rhodopsin, peanut agglutinin lectin (PNA) and DAPI expression.
Retinal immunohistochemistry (IHC) was performed as previously described. Briefly, eyes were enucleated and, after removal of the cornea, lens and vitreous body, eye cups were fixed in 4% paraformaldehyde and processed for cryosectioning. Twelve μm thick cryosections were cut, collected and examined for rhodopsin expression, peanut agglutinin lectin (PNA) for cone sheath and nuclear DAPI staining. […]

[4] = target: T1, Dopamine D1 receptor (D1R) (Homo sapiens, UniProt P21728); test: BRET assay for G protein activation in live cells, D1R-Gs; format: cell-based; conditions: for antagonistic activity on D1R (inhibition of BRET signal): preincubation with ligand, then 1 μM dopamine
T1 construct: host or cells: HEK293T/17
Description: (§1) FIGS. 35(A-C) illustrate characterizing the activity of BRM, MTP, DOX, and TAM on dopamine and adrenaline receptors (A) Schematic representation of the BRET assay used to evaluate actions of drugs on selected GPCRs. […] The free Venus-Gβγ then interacts with the Gβγ-effector mimetic masGRK3ct-Nluc to produce the BRET signal. GDP, guanosine diphosphate; GRK, G protein-coupled receptor kinase; Nluc, nanoluciferase. (B) Left: Representative BRET signal traces recorded upon activation of D4R with indicated drugs in cells expressing Gαo and Venus-Gβγ, illustrating the agonism assay. Right: Representative traces of D2R responses to 1 μM dopamine in the absence (control) or presence of indicated drugs, illustrating antagonism assay. Note that, in the antagonism assay shown, the black trace overlaps with the red trace and therefore is not visible. (C) Top: Quantification of agonistic activity of ligands on D2R, D4R, D1R, and ADRA1A. D2R-GO, D4R-GO, D1R-Gs, and ADRA1A-Gq signaling were reconstituted in HEK293T/17 cells by transient transfection separately. Maximum amplitudes induced by dopamine (DA; 100 μM), noradrenaline (NA; 100 μM), BRM (25 μM), MTP (100 μM), DOX (50 μM), and TAM (100 μM) were plotted as bar graphs. […] The activity is plotted as percent inhibition. Data are means±SD. Results are representative of two independent experiments each performed with 12 replicates.
Dopamine D1, dopamine D4, and α1A-adrenergic receptors were purchased from cDNA Resource Center (Bloomsburg University, Bloomsburg, Pa.). Plasmid encoding the Flag-tagged, long isoform of the D2 dopamine receptor was a gift from A. Kovoor (University of Rhode Island). pCMV5 plasmids encoding GαoA were gifts from H. Itoh (Nara Institute of Science and Technology, Japan). Plasmids encoding Venus 156-239-Gβ1 and Venus 1-155-Gγ2 were gifts from N. Lambert (Georgia Regents University). Plasmids encoding RGS9-2, Gβ5S, R7BP, and masGRK3ct-Nluc were previously described.
(§2) BRET experiments were performed as previously reported with slight modifications. […] BRET measurements were performed using a microplate reader (POLARstar Omega, BMG Labtech) equipped with two emission photomultiplier tubes. […] The BRET signal is determined by calculating the ratio of the light emitted by Gβ1γ2-Venus (535 nm) over the light emitted by masGRK3ct-Nluc (475 nm). The average baseline value recorded before agonist stimulation was subtracted from BRET signal values, and the resulting difference (ABRET ratio) was obtained.
(§3) We used a real-time kinetic assay in which G protein activation by GPCRs is quantified by monitoring changes in the bioluminescence resonance energy transfer (BRET) signal between Venus-tagged Gβγ and its luciferase-tagged reporter in living cells (FIG. 35A). […]

Abca4−/−Rdh8−/− mice [5] = test: Bright light-induced retinal degeneration in Abca4−/−Rdh8−/− mice, ERG retinal function; conditions: pretreatment before light 10,000 lux 30 min; ERG 7 days to 2 weeks after; listed as DOX
[6] = target: T2, D2 dopamine receptor (D2R) (Homo sapiens, UniProt P14416); test: BRET assay for G protein activation in live cells, D2R-Go; format: cell-based; conditions: for antagonistic activity on D2R (inhibition of BRET signal): preincubation with ligand, then 1 μM dopamine
T2 construct: Flag; host or cells: HEK293T/17
Description: as §1, with “Results are representative of two independent experiments each performed with 12 replicates.” left out
as §2, §3

[7] = HEK293T/17 cells, BRM 25 μM, MTP 100 μM, DOX 50 μM, TAM 100 μM

T2 sequence (P14416 whole entry): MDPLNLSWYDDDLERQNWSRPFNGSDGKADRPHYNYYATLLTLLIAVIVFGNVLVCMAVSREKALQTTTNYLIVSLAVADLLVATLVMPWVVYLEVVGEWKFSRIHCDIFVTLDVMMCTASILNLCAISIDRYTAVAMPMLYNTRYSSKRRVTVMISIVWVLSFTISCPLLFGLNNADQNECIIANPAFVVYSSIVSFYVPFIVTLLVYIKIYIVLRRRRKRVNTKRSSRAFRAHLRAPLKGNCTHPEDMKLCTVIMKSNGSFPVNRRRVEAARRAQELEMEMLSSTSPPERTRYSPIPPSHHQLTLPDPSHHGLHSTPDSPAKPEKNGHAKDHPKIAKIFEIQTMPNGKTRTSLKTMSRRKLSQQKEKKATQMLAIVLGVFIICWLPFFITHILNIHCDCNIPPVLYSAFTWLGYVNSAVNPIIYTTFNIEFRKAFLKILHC
T1 sequence (P21728 whole entry): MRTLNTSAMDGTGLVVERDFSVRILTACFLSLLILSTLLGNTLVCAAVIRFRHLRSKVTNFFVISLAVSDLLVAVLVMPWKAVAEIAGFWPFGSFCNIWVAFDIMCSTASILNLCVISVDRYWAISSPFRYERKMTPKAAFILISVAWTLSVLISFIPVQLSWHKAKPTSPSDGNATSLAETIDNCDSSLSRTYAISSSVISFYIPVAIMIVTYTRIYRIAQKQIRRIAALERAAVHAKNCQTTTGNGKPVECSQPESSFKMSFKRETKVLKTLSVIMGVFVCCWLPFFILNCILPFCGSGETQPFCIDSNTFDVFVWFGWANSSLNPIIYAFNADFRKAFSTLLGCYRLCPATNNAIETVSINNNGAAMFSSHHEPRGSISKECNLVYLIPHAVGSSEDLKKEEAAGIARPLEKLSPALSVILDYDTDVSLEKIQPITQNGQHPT

SMILES | retinal autofluorescence spots by SLO imaging (Abca4−/−Rdh8−/− mice [1]) | retinal morphology / ONL (OCT, histology) (BALB/c mice) | NES, CHEMOKINE SIGNALING gene set [2] | NES, CYTOKINE- RECEPTOR INTERACTIO gene set [2] | NES, P53 gene set [2] | NES, TOLL-LIKE SIGNALING gene set [2] | NES, APOPTOSIS gene set [2] | number of light-up-regulated gene sets significantly down-regulated (GSEA) [2] [gene sets] | retinal histology / immunohistochemistry (rhodopsin, PNA, DAPI; ONL) (Abca4−/−Rdh8−/− mice [3]) | antagonistic activity on D1R (inhibition of BRET signal) [4] | retinal function by ERG (a-wave and b-wave amplitudes) (Abca4−/−Rdh8−/− mice [5]) | agonistic activity on D2R (BRET signal) [6, 7] | antagonistic activity on D2R (inhibition of BRET signal) [6] | PNA staining of cone photoreceptors (BALB/c mice; BRM 2.5 mg/kg bw, MTP 10 mg/kg bw) | preservation of retinal gene expression pattern (in words) ([2]; retinas 1 day after light exposure) | agonistic activity on D1R (BRET signal) [4, 7]
COc1cc2nc(N3CCN(C(=O)C4COc5ccccc5O4)CC3)nc(N)c2cc1OC.CS(=O)(=O)O (stereo not drawn) [Doxazosin] | significantly protected retinas from developing light-induced damage | retinal morphology of drug-treated mice was maintained | 1.41 | 2.42 | 2.18 | 1.99 | 1.75 | 28 | substantially preserved photoreceptor morphology | partial antagonistic effect | substantial preservation of the scotopic ERG response; also recorded: substantial preservation of this response | – | – | – | – | –
COCCc1ccc(OCC(O)CNC(C)C)cc1 (stereo not drawn) [MTP, metoprolol tartrate] | lacked these autofluorescent spots | preserved the ONL | 1.44 | 2.30 | 2.04 | 2.05 | 1.61 | 36 | preservation of the ONL and photoreceptor cells | no agonistic or antagonistic effects | – | no agonistic or antagonistic effects | no agonistic or antagonistic effects | nearly normal pattern of PNA staining | conferred the most protection | no agonistic or antagonistic effects
CCOc1ccccc1OCCN[C@H](C)Cc1ccc(OC)c(S(N)(=O)=O)c1.Cl [Tamsulosin] | significantly protected retinas from developing light-induced damage | – | 1.39 | 2.29 | 1.98 | 1.83 | 1.60 | 32 | substantially preserved photoreceptor morphology | partial antagonist | – | – | antagonistic activity | – | – | –
